# System: Wistar rats
# Assay: Laxative test in rats
# Type: in vivo, rat
# Details: for laxative activity: 50 mg/kg b.wt, in words
# Experimental: Animals Wistar rats (180-200 g) of either sex were used for the study. The animals were housed in standard laboratory conditions and provided with a temperature of 22±3° C., relative humidity of 50-55% and a 12-hour light/dark cycle. Drinking water and a synthetic pelleted diet (Lipton India Ltd., Mumbal) were supplied ad libitum. The Ethical Committee of the institution approved the experimental protocol. All the animals received humane care according to the criteria outlined in the “Guide for the care and use of Laboratory Animals” prepared by the National Academy of Sciences and published by The National Institute of Heath. Laxative Test in Rats Twenty-four animals of either sex were randomly divided into 4 groups of 6 rats each. Food was withdrawn 12 hrs. before the experiment. […] The animals were then housed individually in cages lined with blotting paper and observed for 24 hrs. The total number of wet fecal produced from each group was noted [Akah P A, Oli […](4):327]. The laxative property of the one of the selected extract KP-4 was further tested to determine the laxative property in relation to the dosage administered in rats. For the purpose the rats were grouped in four groups. Group I received saline and served as control. […] The animals were then housed individually in cages lined with blotting paper and observed for 24 hrs. The total number of wet fecal produced from each group was noted.
structure (smiles),measurement,setting,value
"COc1cc(/C=C/C(=O)O)ccc1O [Compound C-8, Ferulic acid]",No of Animals Responded,"50 mg/Kg, compounds from KP-1B",10/10
same,No. of faeces,"50 mg/Kg, compounds from KP-1B",7.80 ± 0.80
same,On set of Action,"50 mg/Kg, compounds from KP-1B",179.00 ± 22.66 min
same,Percentage of Action,"50 mg/Kg, compounds from KP-1B",100
same,laxative activity,"listed as C8, 50 mg/kg",significant laxative action
same,laxative activity,"listed as ferulic acid, 50 mg/kg",promising activity
"COc1cc(C(=O)O)ccc1O [Compound C-9, Vanillic acid]",No of Animals Responded,"50 mg/Kg, compounds from KP-1B",Nil
same,Percentage of Action,"50 mg/Kg, compounds from KP-1B",Nil

# Source: patent publication US6641851B2, “Herbal laxative preparation” (The Himalaya Drug Company, priority 2001, dated 2003)
